Measurements as given in patent US20100286145A1, “ISOPHTHALAMIDE DERIVATIVES INHIBITING BETA-SECRETASE ACTIVITY” (CoMentis, Inc., priority 2007, published 2010).
Like-named read-outs stand apart in the source and are kept apart here.

What was measured:
memapsin 2 = memapsin 2 (Homo sapiens, UniProt P56817); assay: Inhibition of memapsin 2 beta-secretase activity (fluorogenic substrate FS-2); type: biochemical; settings: memapsin 2, pH 4, 37° C., read-out: M2Ki
Method in brief: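 Kinetic fluorogenic assay: hydrolysis of the MCA/DNP-labelled APP Swedish-variant peptide FS-2 monitored as fluorescence rise at 37° C, pH 4, after 20 min enzyme–compound preincubation. Relative rates fitted with a tight-binding inhibitor model.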

[1] = test system: Aβ production in Chinese hamster ovary cells that over-express human APP695 with the London and Swedish mutations; assay: Cellular Aβ IC50 determination (Aβ40 sandwich ELISA); type: cell-based; settings: cellular Aβ production, read-out: IC50
Description: The potency of compounds against memapsin 2 activity was determined in a cellular assay of Aβ production. […] Chinese hamster ovary cells that over-express human APP695 with the London and Swedish mutations were seeded in multi-well plates at 10% confluency. Compounds are dissolved in DMSO to concentrations near 1 mM, and diluted into culture media to a final concentration near 4 μM (final 0.4% DMSO). […] Aliquots were removed and assayed for Aβ40 content using a sandwich ELISA (BioSource International). Amount of Aβ40 over the range of concentration of compounds, relative to control incubations, were fit to a 4-parameter IC50 model.

Sequence of memapsin 2 (P56817 46-501): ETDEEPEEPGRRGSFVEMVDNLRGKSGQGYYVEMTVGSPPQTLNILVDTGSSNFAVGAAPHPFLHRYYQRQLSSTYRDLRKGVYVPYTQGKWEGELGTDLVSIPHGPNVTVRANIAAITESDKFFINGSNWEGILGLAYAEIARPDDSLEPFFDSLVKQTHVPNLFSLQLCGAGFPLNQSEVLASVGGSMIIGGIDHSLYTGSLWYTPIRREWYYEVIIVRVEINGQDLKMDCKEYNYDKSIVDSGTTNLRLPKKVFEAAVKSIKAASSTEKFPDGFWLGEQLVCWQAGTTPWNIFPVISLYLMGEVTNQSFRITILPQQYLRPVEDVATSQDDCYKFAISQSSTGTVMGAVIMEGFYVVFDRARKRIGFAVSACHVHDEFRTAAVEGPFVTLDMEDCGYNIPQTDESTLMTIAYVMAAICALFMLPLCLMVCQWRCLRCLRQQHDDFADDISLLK

| Ki (memapsin 2; 20 minutes pre-incubation) [nM] | IC50 ([1]; Cricetulus griseus) [nM] | Ki (memapsin 2; fluorogenic substrate FS-2) [nM] | IC50 [1] [nM] | SMILES |
| --- | --- | --- | --- | --- |
| > 501 | 1000 to 5000 |  |  | COc1cccc(CNC[C@@H](O)[C@H](Cc2ccccc2)NC(=O)c2cc(N)cc(C(=O)N(C)Cc3nc(C)cs3)c2)c1 [Compound 34, 5-amino-N1-((2S,3R)-3-hydroxy-4-(3-methoxybenzylamino)-1-phenylbutan-2-yl)-N3-methyl-N3-((4-methylthiazol-2-yl)methyl)isophthalamide] |
| < 300 | < 1000 |  |  | COc1cccc(CNC[C@@H](O)[C@H](Cc2ccccc2)NC(=O)c2cc(C(N)=O)cc(C(=O)N(C)Cc3nc(C)cs3)c2)c1 [Compound 103, N1-((2S,3R)-3-hydroxy-4-(3-methoxybenzylamino)-1-phenylbutan-2-yl)-N3-methyl-N3-((4-methylthiazol-2-yl)methyl)benzene-1,3,5-tricarboxamide] |
| < 300 | < 1000 |  |  | Cc1csc(CN(C)C(=O)c2cc(C(=O)N[C@@H](Cc3ccccc3)[C@H](O)CNCc3cncc(C(C)C)c3)cc(C(F)F)c2)n1 [Compound 204, 5-(difluoromethyl)-N1-((2S,3R)-3-hydroxy-4-((5-isopropylpyridin-3-yl)methylamino)-1-phenylbutan-2-yl)-N3-methyl-N3-((4-methylthiazol-2-yl)methyl)isophthalamide] |
| < 300 | < 1000 |  |  | CCN(Cc1nc(C)cs1)C(=O)c1cc(OC)cc(C(=O)N[C@@H](Cc2ccccc2)[C@H](O)CNCc2cccc(OC)c2)c1 [Compound 16, N1-ethyl-N3-((2S,3R)-3-hydroxy-4-(3-methoxybenzylamino)-1-phenylbutan-2-yl)-5-methoxy-N1-((4-methylthiazol-2-yl)methyl)isophthalamide] |
| < 300 | < 1000 |  |  | COc1cccc(CNC[C@@H](O)[C@H](Cc2ccccc2)NC(=O)c2cc(C(=O)N(C)Cc3nc(C)cs3)cc(N3CCCC3)c2)c1 [Compound 179, N1-((2S,3R)-3-hydroxy-4-(3-methoxybenzylamino)-1-phenylbutan-2-yl)-N3-methyl-N3-((4-methylthiazol-2-yl)methyl)-5-(pyrrolidin-1-yl)isophthalamide] |
| < 300 | < 1000 |  |  | COc1cccc(CNC[C@@H](O)[C@H](Cc2ccccc2)NC(=O)c2cc(C(=O)O)cc(C(=O)N(C)Cc3nc(C)cs3)c2)c1 [Compound 19, 3-((2S,3R)-3-hydroxy-4-(3-methoxybenzylamino)-1-phenylbutan-2-ylcarbamoyl)-5-(methyl((4-methylthiazol-2-yl)methyl)carbamoyl)benzoic acid] |
| < 300 | < 1000 |  |  | COc1cc(C(=O)N[C@@H](Cc2ccccc2)[C@H](O)CNCc2cccc(C(F)(F)F)c2)cc(C(=O)N(C)Cc2nc(C)cs2)c1 [Compound 31, N1-((2S,3R)-3-hydroxy-1-phenyl-4-(3-(trifluoromethyl)benzylamino)butan-2-yl)-5-methoxy-N3-methyl-N3-((4-methylthiazol-2-yl)methyl)isophthalamide] |
| < 300 | < 1000 |  |  | Cc1csc(CN(C)C(=O)c2cccc(C(=O)N[C@@H](Cc3ccccc3)[C@H](O)CNCc3cncc(C4CC4)c3)c2)n1 [Compound 30, N1-((2S,3R)-4-((5-cyclopropylpyridin-3-yl)methylamino)-3-hydroxy-1-phenylbutan-2-yl)-N3-methyl-N3-((4-methylthiazol-2-yl)methyl)isophthalamide] |
|  | < 1000 | < 300 |  | Cc1csc(CN(C)C(=O)c2cc(C(=O)N[C@@H](Cc3ccccc3)[C@H](O)CNCc3cncc(C(C)C)c3)cc(-c3cnn(C)c3)c2)n1 [Compound 258, N1-((2S,3R)-3-hydroxy-4-((5-isopropylpyridin-3-yl)methylamino)-1-phenylbutan-2-yl)-N3-methyl-5-(1-methyl-1H-pyrazol-4-yl)-N3-((4-methylthiazol-2-yl)methyl)isophthalamide] |
| > 501 | > 5000 |  |  | Cc1csc(CN(C)C(=O)c2cccc(C(=O)N[C@@H](Cc3ccccc3)[C@H](O)CNCc3cccc(N)c3)c2)n1 [Compound 191, N1-((2S,3R)-4-(3-aminobenzylamino)-3-hydroxy-1-phenylbutan-2-yl)-N3-methyl-N3-((4-methylthiazol-2-yl)methyl)isophthalamide] |
| < 300 | < 1000 |  |  | Cc1csc(CN(C)C(=O)c2cccc(C(=O)N[C@@H](Cc3ccccc3)[C@H](O)CNCc3cc(F)cc(C(F)(F)F)c3)c2)n1 [Compound 28, N1-((2S,3R)-4-(3-fluoro-5-(trifluoromethyl)benzylamino)-3-hydroxy-1-phenylbutan-2-yl)-N3-methyl-N3-((4-methylthiazol-2-yl)methyl)isophthalamide] |
| < 300 | > 5000 |  |  | COc1cccc(CNC[C@@H](O)[C@H](Cc2ccccc2)NC(=O)c2cc(C(=O)NCc3nc(C)cs3)cc(N3CCCC3)c2)c1 [Compound 187, N1-((2S,3R)-3-hydroxy-4-(3-methoxybenzylamino)-1-phenylbutan-2-yl)-N3-((4-methylthiazol-2-yl)methyl)-5-(pyrrolidin-1-yl)isophthalamide] |
| < 300 | < 1000 |  |  | Cc1csc(CN(C)C(=O)c2cccc(C(=O)N[C@@H](Cc3ccccc3)[C@H](O)CNCc3cc(C(C)C)nc(N)n3)c2)n1 [Compound 155, N1-((2S,3R)-4-((2-amino-6-isopropylpyrimidin-4-yl)methylamino)-3-hydroxy-1-phenylbutan-2-yl)-N3-methyl-N3-((4-methylthiazol-2-yl)methyl)isophthalamide] |
| < 300 | < 1000 |  |  | Cc1csc(CN(C)C(=O)c2cccc(C(=O)N[C@@H](Cc3ccccc3)[C@H](O)CNCc3cc(C(F)(F)F)cc(C(F)(F)F)c3)c2)n1 [Compound 27, N1-((2S,3R)-4-(3,5-bis(trifluoromethyl)benzylamino)-3-hydroxy-1-phenylbutan-2-yl)-N3-methyl-N3-((4-methylthiazol-2-yl)methyl)isophthalamide] |
| < 300 | < 1000 |  |  | C[C@@H](NC(=O)c1cc(C(=O)N[C@@H](Cc2ccccc2)[C@H](O)CNCc2cc(C(C)(C)C)ccc2O)cc(N(C)S(C)(=O)=O)c1)c1ccccc1 [Compound 110, N1-((2S,3R)-4-(5-tert-butyl-2-hydroxybenzylamino)-3-hydroxy-1-phenylbutan-2-yl)-5-(N-methylmethylsulfonamido)-N3-((R)-1-phenylethyl)isophthalamide] |
| < 300 |  |  | < 1000 | COc1cccc(CN(C)C[C@@H](O)[C@H](Cc2ccccc2)NC(=O)c2cccc(C(=O)N(C)Cc3nc(C)cs3)c2)c1 [Compound 1, N^1-((2S,3R)-3-hydroxy-4-((3-methoxybenzyl)(methyl)amino)-1-phenylbutan-2-yl)-N^3-methyl-N^3-((4-methylthiazol-2-yl)methyl)isophthalamide] |
| < 300 | < 1000 |  |  | Cc1csc(CN(C)C(=O)c2cccc(C(=O)N[C@@H](Cc3ccccc3)[C@H](O)CNCc3cccc(NCc4ccccc4)c3)c2)n1 [Compound 164, N1-((2S,3R)-4-(3-(benzylamino)benzylamino)-3-hydroxy-1-phenylbutan-2-yl)-N3-methyl-N3-((4-methylthiazol-2-yl)methyl)isophthalamide] |
|  |  | < 300 |  | Cc1csc(CN(C)C(=O)c2cccc(C(=O)N[C@@H](Cc3ccccc3)[C@H](O)CNCc3cc(C(F)(F)F)ccn3)c2)n1 [Compound 302, N1-((2S,3R)-3-hydroxy-1-phenyl-4-((4-(trifluoromethyl)pyridin-2-yl)methylamino)butan-2-yl)-N3-methyl-N3-((4-methylthiazol-2-yl)methyl)isophthalamide] |
|  |  | < 300 |  | CC(=O)c1cc(C(=O)N[C@@H](Cc2ccccc2)[C@H](O)CNCc2cncc(C(C)C)c2)cc(C(=O)N[C@H](C)c2ccccc2)c1 [Compound 308, 5-acetyl-N1-((2S,3R)-3-hydroxy-4-((5-isopropylpyridin-3-yl)methylamino)-1-phenylbutan-2-yl)-N3-((R)-1-phenylethyl)isophthalamide] |
| < 300 |  |  |  | Cc1csc(CN(C)C(=O)c2cccc(C(=O)N[C@@H](Cc3ccccc3)[C@H](O)CNCc3cccc4cc[nH]c34)c2)n1 [Compound 39, N1-((2S,3R)-4-((1H-indol-7-yl)methylamino)-3-hydroxy-1-phenylbutan-2-yl)-N3-methyl-N3-((4-methylthiazol-2-yl)methyl)isophthalamide] |
| > 501 |  |  |  | COc1cccc(CNC[C@@H](O)[C@H](Cc2ccccc2)NC(=O)c2cc(NO)cc(C(=O)N[C@H](C)c3ccccc3)c2)c1 [Compound 123, N1-((2S,3R)-3-hydroxy-4-(3-methoxybenzylamino)-1-phenylbutan-2-yl)-5-(hydroxyamino)-N3-((R)-1-phenylethyl)isophthalamide] |
|  |  | > 501 |  | Cc1csc(CN(C)C(=O)c2cccc(C(=O)N[C@@H](Cc3ccccc3)[C@H](O)CNCc3cncc(C(C)C)c3)c2O)n1 [Compound 297, 2-hydroxy-N1-((2S,3R)-3-hydroxy-4-((5-isopropylpyridin-3-yl)methylamino)-1-phenylbutan-2-yl)-N3-methyl-N3-((4-methylthiazol-2-yl)methyl)isophthalamide] |
| > 501 |  |  |  | Cc1csc(CN(C)C(=O)c2cccc(C(=O)N[C@@H](Cc3ccccc3)[C@H](O)CNCc3ccc(CO)c(C)n3)c2)n1 [Compound 37, N1-((2S,3R)-3-hydroxy-4-((5-(hydroxymethyl)-6-methylpyridin-2-yl)methylamino)-1-phenylbutan-2-yl)-N3-methyl-N3-((4-methylthiazol-2-yl)methyl)isophthalamide] |
